For 27 compounds, T/C results are on record in PubChem BioAssay AID256 (DTP/NCI, 2004).

The experiment relates to CD2F1 mice, L1210 leukemia ip, survival T/C. Kind of experiment: NCI In Vivo Anticancer Drug Screen. Data for tumor model L1210 Leukemia (intraperitoneal) in CD2F1 (CDF1) mice. The settings on record: higher = longer survival. An outline of the steps:
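Activity against a transplanted murine tumor was judged by comparing the compound group with a vehicle group. The outcome in the treated animals was divided by that in the controls.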

Setting [1] is: endpoint: mean survival time, dose: 100.0 mg/kg/injection, schedule: Q04DX003 (ip), vehicle: saline.
[2] abbreviates: endpoint: mean survival time, dose: 200.0 mg/kg/injection, schedule: Q04DX003 (ip), vehicle: saline.
[3] abbreviates: endpoint: mean survival time, dose: 400.0 mg/kg/injection, schedule: Q04DX003 (ip), vehicle: saline.
The mark [4] stands for this setting: endpoint: mean survival time, dose: 100.0 mg/kg/injection, schedule: Q04DX002 (ip), vehicle: saline with Tween-80.
[5] abbreviates: endpoint: mean survival time, dose: 200.0 mg/kg/injection, schedule: Q04DX002 (ip), vehicle: saline with Tween-80.
Where [6] appears, read: endpoint: mean survival time, dose: 100.0 mg/kg/injection, schedule: Q04DX003 (ip), vehicle: saline with Tween-80.
Where [7] appears, read: endpoint: mean survival time, dose: 200.0 mg/kg/injection, schedule: Q04DX003 (ip), vehicle: saline with Tween-80.
Setting [8] is: endpoint: mean survival time, dose: 400.0 mg/kg/injection, schedule: Q04DX003 (ip), vehicle: saline with Tween-80.
The mark [9] stands for this setting: endpoint: mean survival time, dose: 100.0 mg/kg/injection, schedule: Q01DX009 (ip), vehicle: saline.
[10] abbreviates: endpoint: mean survival time, dose: 200.0 mg/kg/injection, schedule: Q01DX009 (ip), vehicle: saline.
[11] abbreviates: endpoint: mean survival time, dose: 100.0 mg/kg/injection, schedule: Q01DX001 (ip), vehicle: saline.
The mark [12] stands for this setting: endpoint: mean survival time, dose: 200.0 mg/kg/injection, schedule: Q01DX001 (ip), vehicle: saline.
Setting [13] is: endpoint: mean survival time, dose: 400.0 mg/kg/injection, schedule: Q01DX001 (ip), vehicle: saline.
The mark [14] stands for this setting: endpoint: mean survival time, dose: 25.0 mg/kg/injection, schedule: Q04DX002 (ip), vehicle: saline with Tween-80.
[15] abbreviates: endpoint: mean survival time, dose: 50.0 mg/kg/injection, schedule: Q04DX002 (ip), vehicle: saline with Tween-80.
The mark [16] stands for this setting: endpoint: mean survival time, dose: 100.0 mg/kg/injection, schedule: Q01DX001 (ip), vehicle: saline with Tween-80.
Setting [17] is: endpoint: mean survival time, dose: 200.0 mg/kg/injection, schedule: Q01DX001 (ip), vehicle: saline with Tween-80.
The mark [18] stands for this setting: endpoint: mean survival time, dose: 400.0 mg/kg/injection, schedule: Q01DX001 (ip), vehicle: saline with Tween-80.
Setting [19] is: endpoint: mean survival time, dose: 25.0 mg/kg/injection, schedule: Q01DX009 (ip), vehicle: Klucel (hydroxypropylcellulose) (HPC).
Setting [20] is: endpoint: mean survival time, dose: 50.0 mg/kg/injection, schedule: Q01DX009 (ip), vehicle: Klucel (hydroxypropylcellulose) (HPC).
Setting [21] is: endpoint: mean survival time, dose: 100.0 mg/kg/injection, schedule: Q01DX009 (ip), vehicle: Klucel (hydroxypropylcellulose) (HPC).

Values joined by “and” are separate entries in the source; they are usually repeats but may differ in a detail not shown here. Equal values may be shown once. Inconclusive results and toxic doses are left out.

For `COc1ccc(C(=O)CCC(=O)O)c(C)c1`, the T/C was 96 % of control under setting [1], 94 % of control under setting [2] and 92 % of control under setting [3].

In the case of `CCCCCCCCCCCCCCCCCCOc1ccc(Cl)cc1`, the T/C runs as follows: under setting [4], 90 % of control; under setting [5], 93 % of control.

In the case of `O=c1cc[nH]cc1[N+](=O)[O-]`, the T/C (endpoint: mean survival time, dose: 50.0 mg/kg/injection, schedule: Q01DX009 (ip), vehicle: saline with Tween-80) is 101 % of control; the T/C (endpoint: mean survival time, dose: 100.0 mg/kg/injection, schedule: Q01DX009 (ip), vehicle: saline with Tween-80) was 101 % of control; the T/C (endpoint: mean survival time, dose: 100.0 mg/kg/injection, schedule: Q04DX003 (ip), vehicle: saline sonified) was 97 % of control; the T/C (endpoint: mean survival time, dose: 200.0 mg/kg/injection, schedule: Q01DX009 (ip), vehicle: saline with Tween-80) is 100 % of control; the T/C (endpoint: mean survival time, dose: 200.0 mg/kg/injection, schedule: Q04DX003 (ip), vehicle: saline sonified) was 95 % of control.

With `Cn1c(=O)c2c(ncn2CCCNCC(O)c2ccc(O)c(CO)c2)n(C)c1=O` (configuration not stated), the T/C was 96 % of control (endpoint: mean survival time, dose: 12.5 mg/kg/injection, schedule: Q01DX005 (ip), vehicle: water); 96 % of control (endpoint: mean survival time, dose: 25.0 mg/kg/injection, schedule: Q01DX005 (ip), vehicle: water); 100 % of control (endpoint: mean survival time, dose: 50.0 mg/kg/injection, schedule: Q01DX005 (ip), vehicle: water); 96 % of control (endpoint: mean survival time, dose: 100.0 mg/kg/injection, schedule: Q01DX005 (ip), vehicle: water); 98 % of control (endpoint: mean survival time, dose: 200.0 mg/kg/injection, schedule: Q01DX005 (ip), vehicle: water).

`O=S1(=O)CC(O)C(Br)C1` (configuration not stated): the T/C under setting [6] was 103 % of control, the T/C under setting [7] is 101 % of control and the T/C under setting [8] is 92 % of control.

In the case of `COC(=O)CC(C)Cc1ccc(OC)c(OC)c1` (configuration not stated), the T/C by setting is: under setting [9], 97 % of control; under setting [6], 97 % of control; under setting [10], 95 % of control; under setting [7], 100 % of control; (endpoint: mean survival time, dose: 400.0 mg/kg/injection, schedule: Q01DX009 (ip), vehicle: saline) 86 % of control; under setting [8], 96 % of control.

Consider `Clc1ccc(-c2cc(C3CO3)c3cc(Cl)cc(Cl)c3n2)cc1` (configuration not stated), for which the T/C is 91 % of control under setting [11], 97 % of control under setting [12] and 91 % of control under setting [13].

`CCOc1ccc(OCC)c(NC(=O)Nc2ccccc2C)c1`: the T/C runs as follows: under setting [14], 88 % of control; under setting [15], 88 % of control; under setting [4], 90 % of control; (endpoint: mean survival time, dose: 400.0 mg/kg/injection, schedule: Q04DX002 (ip), vehicle: saline with Tween-80) 90 % of control.

Consider `Clc1nc2ccccc2[nH]1`, for which the T/C is, setting by setting: under setting [1], 98 % of control; under setting [2], 100 % of control; under setting [3], 90 % of control.

As to `Cc1c(Cl)ccc(OCC2=NCCN2)c1C`, the T/C runs as follows: under setting [14], 109 % of control; under setting [15], 97 % of control; under setting [4], 100 % of control and 102 % of control.

As to `Nc1nc2ccc(CNc3ccc(C(=O)NC(CC(=O)O)C(=O)O)cc3)cc2c(=O)[nH]1` (configuration not stated), the T/C is 105 % of control (endpoint: mean survival time, dose: 66.0 mg/kg/injection, schedule: Q04DX003 (ip), vehicle: saline with Tween-80); 109 % of control under setting [6]; 105 % of control (endpoint: mean survival time, dose: 150.0 mg/kg/injection, schedule: Q04DX003 (ip), vehicle: saline with Tween-80).

Regarding `Oc1cccc(O)c1`, the T/C reads like this: (endpoint: mean survival time, dose: 50.0 mg/kg/injection, schedule: Q01DX009 (ip), vehicle: saline) 98 % of control; under setting [9], 95 % of control; under setting [10], 101 % of control.

`CCN(CC)CCCC(C)NC(c1ccc2c(c1)Sc1ccccc1O2)[P+](=O)O` (configuration not stated): the T/C under setting [15] was 97 % of control; the T/C (endpoint: mean survival time, dose: 100.0 mg/kg/injection, schedule: Q01DX001 (ip), vehicle: saline sonified) was 95 % of control; the T/C under setting [4] was 90 % of control; the T/C (endpoint: mean survival time, dose: 200.0 mg/kg/injection, schedule: Q01DX001 (ip), vehicle: saline sonified) was 91 % of control; the T/C under setting [5] is 97 % of control.

For the compound `OC(Cc1cnc2ccccc2n1)(C(F)(F)F)C(F)(F)F`, the T/C runs as follows: under setting [6], 94 % of control; under setting [7], 98 % of control; under setting [8], 103 % of control.

For `Cc1cnccc1Br`, the T/C by setting is: (endpoint: mean survival time, dose: 25.0 mg/kg/injection, schedule: Q01DX009 (ip), vehicle: water) 96 % of control; (endpoint: mean survival time, dose: 50.0 mg/kg/injection, schedule: Q01DX009 (ip), vehicle: water) 96 % of control; (endpoint: mean survival time, dose: 100.0 mg/kg/injection, schedule: Q01DX009 (ip), vehicle: water) 86 % of control; (endpoint: mean survival time, dose: 200.0 mg/kg/injection, schedule: Q01DX009 (ip), vehicle: water) 90 % of control.

Consider `Cc1ccc(S(=O)(=O)OCCc2ccccc2)cc1`, for which the T/C under setting [16] is 97 % of control, the T/C under setting [17] was 97 % of control and the T/C under setting [18] was 94 % of control.

For `O=C(/C=C(\CN1CCCCC1)c1ccccc1)c1ccccc1`, the T/C by setting is: under setting [19], 95 % of control; under setting [20], 105 % of control; under setting [21], 94 % of control.

As for `CNc1cc([N+](=O)[O-])ccc1Br`, the T/C (endpoint: mean survival time, dose: 100.0 mg/kg/injection, schedule: Q04DX002 (ip), vehicle: other) was 91 % of control; the T/C (endpoint: mean survival time, dose: 200.0 mg/kg/injection, schedule: Q04DX002 (ip), vehicle: other) is 100 % of control; the T/C (endpoint: mean survival time, dose: 400.0 mg/kg/injection, schedule: Q04DX002 (ip), vehicle: other) was 95 % of control.

As to `COc1cc(C=Nc2cccc(F)c2)ccc1N(CCCl)CCCl`, the T/C runs as follows: (endpoint: mean survival time, dose: 16.0 mg/kg/injection, schedule: Q01DX015 (ip), vehicle: saline) 157 % of control; (endpoint: mean survival time, dose: 25.0 mg/kg/injection, schedule: Q01DX001 (ip), vehicle: other) 121 % of control; (endpoint: mean survival time, dose: 50.0 mg/kg/injection, schedule: Q01DX001 (ip), vehicle: other) 119 % of control.

For `Nc1cccc(OCC(O)CN2CCN(c3ccccc3)CC2)c1` (configuration not stated), the T/C reads like this: under setting [15], 93 % of control; under setting [4], 89 % of control and 94 % of control; under setting [5], 112 % of control.

On to `COc1ccn(C2OCCC(N=[N+]=[N-])C2O)c(=O)n1` (configuration not stated), for which the T/C by setting is: (endpoint: median survival time, dose: 12.5 mg/kg/injection, schedule: Q01DX005 (ip), vehicle: alkali diluted with saline) 109 % of control; (endpoint: median survival time, dose: 25.0 mg/kg/injection, schedule: Q01DX005 (ip), vehicle: alkali diluted with saline) 102 % of control; (endpoint: median survival time, dose: 50.0 mg/kg/injection, schedule: Q01DX005 (ip), vehicle: alkali diluted with saline) 108 % of control; (endpoint: median survival time, dose: 100.0 mg/kg/injection, schedule: Q01DX005 (ip), vehicle: alkali diluted with saline) 109 % of control; (endpoint: median survival time, dose: 200.0 mg/kg/injection, schedule: Q01DX005 (ip), vehicle: alkali diluted with saline) 98 % of control.

Take `C/C(=N/O)c1ccc2c(c1)C(C)c1ccccc1-2` (configuration not stated): the T/C reads like this: under setting [11], 112 % of control; under setting [12], 110 % of control; under setting [13], 104 % of control.

Consider `O=C1OC(=O)c2ccccc21`, for which the T/C was 91 % of control under setting [19], 95 % of control under setting [20] and 95 % of control under setting [21].

Consider `CCOC(=O)/C=C/SCCCN`, for which the T/C is, setting by setting: under setting [1], 98 % of control; under setting [2], 96 % of control.

In the case of `CCCCS(CCCC)=NS(=O)(=O)c1ccc(C)cc1`, the T/C was 90 % of control under setting [20]; 94 % of control under setting [21]; 90 % of control (endpoint: mean survival time, dose: 200.0 mg/kg/injection, schedule: Q01DX009 (ip), vehicle: Klucel (hydroxypropylcellulose) (HPC)).

In the case of `Cc1ccc(C2(c3ccccc3)c3ccccc3C(=O)N2c2ccccc2)cc1` (configuration not stated), the T/C is 97 % of control under setting [6], 101 % of control under setting [7] and 103 % of control under setting [8].

For the compound `CC(=O)Nc1ccc2c(c1)CCC2=O`, the T/C by setting is: under setting [16], 91 % of control; under setting [17], 95 % of control; under setting [18], 98 % of control.
